Data taken from patent US20110009616A1, “AGENT FOR PREVENTING ARTERIOSCLEROSIS” (priority 2006, published 2011).
Read-outs that look alike come from different tables or passages of the source.

Tests used:
[1] = tested on: caveola transport pathway; experiment: Uptake of CTB, transport marker of caveola pathway, into COS-1 cells (Example 7); format: cell-based, African green monkey; details: FIG. 6
[2] = rat; Non-patent Document 16; cited from earlier work
smooth muscle cells = experiment: Oxidized LDL uptake into smooth muscle cells, IN Cell Analyzer (Example 8); format: cell-based; details: FIG. 7
Description: As for the compounds in Examples 1 and 2 and Comparative Example 6, the abilities to suppress the oxidized LDL uptake into the smooth muscle cells were evaluated in a similar method to Example 6.
The smooth muscle cells were prepared to 1×10^5 cells/mL and seeded into a 96-well plate. After cultivating for two days, the cells were treated by each inhibitor in a similar method to Example 6. After the treatment of each inhibitor, the cells were washed with PBS three times and fixed with a 10% formalin solution at room temperature in the dark for 10 minutes. The fixed cells were washed with ultrapure water twice and the nuclei were dyed with DAPI. These cells were analyzed with “IN Cell Analyzer” (manufactured by GE Healthcare Bio-Sciences KK), and the uptake number of Dil-labeled oxidized LDL into the smooth muscle cells was divided by the number of nuclei. Furthermore, 4 fields of view per well were measured and the measurements were n=3 per treatment.

SR-AII = target: T1, SR-AII (Homo sapiens, UniProt P21757); experiment: DiI-OxLDL uptake into cells expressing SR-AII (Example 7); format: cell-based; details: FIG. 6
T1 construct: expressed in transfected cells; host or cells: COS-1 cells (transient, 48 h), pDEST26
T1 sequence (P21757 1-358 isoform P21757-2): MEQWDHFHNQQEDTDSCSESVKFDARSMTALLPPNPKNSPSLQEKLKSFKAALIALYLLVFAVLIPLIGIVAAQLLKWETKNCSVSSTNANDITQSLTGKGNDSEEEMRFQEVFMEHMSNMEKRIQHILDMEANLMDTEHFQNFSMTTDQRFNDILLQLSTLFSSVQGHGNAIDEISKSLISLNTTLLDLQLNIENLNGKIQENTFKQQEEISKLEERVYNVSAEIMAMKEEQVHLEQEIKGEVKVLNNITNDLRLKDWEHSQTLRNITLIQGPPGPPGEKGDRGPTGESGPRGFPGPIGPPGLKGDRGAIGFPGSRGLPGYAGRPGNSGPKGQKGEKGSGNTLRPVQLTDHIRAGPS
Description: As for cDNA cloning of human SR-AII, the full-length sequence (1,077 base pairs) was obtained by PCR using cDNA derived from human normal lien (Invitrogen) as a template. Additionally a CACC sequence was added to 5′-terminal of the upstream primer. The amplified PCR product was inserted to a pENTR/D-TOPO vector (Invitrogen) and transformed into Mach1 cells (Invitrogen). From the obtained transformant, clones supposed to have the plasmid which was correctly inserted with the SR-AII full-length sequence were selected in usual ways such as a colony PCR method, and the plasmid sequence was sequenced. Furthermore, for the plasmid ascertained to have the correct sequence by sequencing, a site-specific recombination reaction to pDEST26 (Invitrogen) as an expression vector for animal cells was carried out according to a manual. The obtained pDEST26 vector having the full-length sequence of […] was transformed into COS-1 cells (Health Science Research Resources Bank), and cultivated for 48 hours to obtain a transient expressed cell line. […] Nystatin (manufactured by Wako) was used as a specific inhibitor of caveola transport.

[3] = tested on: normal bovine aortic endothelial cell (BAEC); experiment: DiI-OxLDL uptake into normal bovine aortic endothelial cells (Example 7); format: cell-based; details: FIG. 6
[4] = rats, intravenous injection; Non-patent Document 17; cited from earlier work
[5] = human; Non-patent Document 15; cited from earlier work

C=Cc1c(C)c2cc3nc(c4c5[nH]c(cc6nc(cc1[nH]2)C(C)=C6CC)c(C)c5C(=O)[C@@H]4C(=O)OC)[C@@H](CCC(=O)O)[C@@H]3C [pheophorbide a]
inhibition of caveola transport pathway (CTB uptake) [1]: inhibits the caveola transport pathway significantly | ingestion causing photosensitivity disease [2]: ≥ 220 mg/kg | ability to suppress oxidized LDL uptake in smooth muscle cells (smooth muscle cells): very strong ability to suppress the uptake | suppression of oxidized LDL uptake in smooth muscle cells, compared with anti-LOX-1 antibody (smooth muscle cells): stronger suppression effect than that of the anti-LOX-1 antibody | ability to suppress oxidized LDL uptake by SR-A (SR-AII): the ability to suppress the oxidized LDL uptake by SR-A | inhibitory activity on DiI-OxLDL uptake, compared with anti-LOX-1 antibody [3]: stronger than that of the anti-LOX-1 antibody | accumulation to skin [4]: low | main accumulation target [4]: reticuloendothelial system | ingestion causing photosensitivity disease [5]: ≥ 500 mg/day
